Results as given in PMC6736736 (Molecular microbiology, 2019).

Key:
ZagA (YciC) [1] = target: T1, ZagA (YciC) (Bacillus subtilis, UniProt P94400); experiment: inhibition of GTP hydrolysis, malachite green assay; assay type: biochemical; conditions: substrate GTP
ZagA (YciC) [2] = target: T1, ZagA (YciC); experiment: inhibition of ZTP hydrolysis, malachite green assay; assay type: biochemical; conditions: substrate ZTP

T1 sequence (P94400 whole entry): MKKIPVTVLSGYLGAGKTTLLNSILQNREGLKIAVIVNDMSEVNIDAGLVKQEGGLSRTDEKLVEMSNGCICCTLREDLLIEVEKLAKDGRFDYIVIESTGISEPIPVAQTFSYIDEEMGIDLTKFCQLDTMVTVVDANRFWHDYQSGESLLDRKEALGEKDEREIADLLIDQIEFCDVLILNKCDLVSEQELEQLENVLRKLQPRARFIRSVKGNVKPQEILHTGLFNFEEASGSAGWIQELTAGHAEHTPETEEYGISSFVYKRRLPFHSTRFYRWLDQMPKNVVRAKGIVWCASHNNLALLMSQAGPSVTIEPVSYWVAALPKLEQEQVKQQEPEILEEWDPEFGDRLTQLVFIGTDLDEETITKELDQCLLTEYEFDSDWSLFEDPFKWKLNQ

Row | Compound | inhibition of GTPase activity (ZagA (YciC) [1]) | inhibition of ZTPase activity (ZagA (YciC) [2])
1 | NC(=O)c1ncn([C@@H]2O[C@H](COP(=O)(O)O)[C@@H](O)[C@H]2O)c1N [ZMP] | Conversely, ZMP inhibited GTP hydrolysis (Fig 4D) | 
2 | Nc1nc2c(ncn2[C@@H]2O[C@H](COP(=O)(O)OP(=O)(O)NP(=O)(O)O)[C@@H](O)[C@H]2O)c(=O)[nH]1 [GDP-NP] |  | GDP-NP, a non-hydrolyzable analog of GTP, inhibited ZTP hydrolysis
